Laboratory results reported in patent publication US20230270743A1, “USE OF BTK INHIBITORS IN THE TREATMENT OF DISEASES” (JIANGSU HENGRUI PHARMACEUTICALS CO., LTD., priority 2020, published 2023).

Tested on: patients diagnosed with AQP4-IgG positive NMOSD
Assay: Clinical research of the compound of formula (I) in treating neuromyelitis optica spectrum disorder (NMOSD)
Format: in vivo, human
Procedure: Average annualized relapse rate (ARR)=total number of episodes of subjects/(number of subjects*observation time).
Example 1: Clinical Research of the Compound of Formula (I) in Treating Neuromyelitis Optica Spectrum Disorder (NMOSD)
Tablets of the compound of formula (I), specification: 100 mg/tablet.
1) Male or female from 18 to 75 years old (including 18 and 75 years old);
2) Patients diagnosed with AQP4-IgG positive NMOSD according to the 2015 IPND diagnostic criteria;
3) Requirements for history of relapse: 2 or more relapses of NMOSD requiring rescue therapy within 1 year before baseline, the rescue therapy can include IV glucocorticoid, plasma exchange, and/or intravenous immune globulin (IVIG);
4) Subjects must have been on stable treatment (if any) for more than 1 month before starting test drug treatment, defined as follows: • the amount of immunosuppressant (such as tacrolimus, azathioprine, mycophenolate) and/or oral corticosteroid must be stable or in the process of reduction, and the acute phase rescue therapy (such as IV glucocorticoid, plasma exchange, and/or intravenous immunoglobulin) must be completed for more than 1 month.
The test drug was administered to the qualified subjects in the morning on an empty stomach, once a day, one tablet at a time, and 100 mg per tablet.
At present, the study has completed the enrollment of all 10 subjects, and the average annualized relapse rate (ARR=the total number of episodes of subjects/(number of subjects*observation time)) of all subjects before enrollment was 2.1. By now, an annualized relapse rate of 0.7 for existing subjects after baseline medication has been observed. A patient with a 7-year history of NMOSD had severe symptoms (unable to stand) before participating in the trial. […] At the 7th week of medication, the patient could walk more than 20 meters with assistance, and could substantially take care of themself.

Structure (SMILES): CC#CC(=O)N1CC[C@@H](n2cc(-c3ccc(Oc4c(F)cccc4F)cc3)c3c(N)n[nH]c(=O)c32)C1 [compound of formula (I), (R)-4-amino-1-(1-(but-2-ynoyl)pyrrolidin-3-yl)-3-(4-(2,6-difluorophenoxy)phenyl)-1,6-dihydro-7H-pyrrolo[2,3-d]pyridazin-7-one]
- annualized relapse rate (ARR) after baseline medication (AQP4-IgG positive NMOSD subjects (10 enrolled), 100 mg tablet once a day, morning, empty stomach, average ARR before enrollment was 2.1, interim (by now)): 0.7
- mobility of patient (patient, 7-year history of NMOSD, unable to stand before trial, after 4 weeks of administration, could stand up and walk several steps with assistance): significantly improved mobility
- walking distance with assistance (same patient, at the 7th week of medication, could substantially take care of themself): more than 20 meters
